The record followed here is ChEMBL document CHEMBL1156960, “First synthesis of separable isomeric testosterone dimers showing differential activities on prostate cancer cells” (Bioorg Med Chem Lett, 2010).

One may read the IC50 as the concentration at which inhibition is half-maximal. A low value points to greater potency.

In one assay the test system is LNCaP. Put plainly: Cytotoxicity against human androgen receptor positive LNCAP cells after 72 hrs by MTT assay. The class given is functional, cell-based. On the technique in general: Tetrazolium assays rely on reduction of a dye to a coloured formazan, in cell work by metabolically active cells.
For the next assay, the system named is PC-3. Nature of the assay: Cytotoxicity against human androgen receptor negative PC3 cells after 72 hrs by MTT assay. The settings on record: PC-3, 72 h. The class given is functional, cell-based.

For `C[C@]12CC[C@H]3[C@@H]([C@@H](C/C=C\C[C@H]4CC5=CC(=O)CC[C@]5(C)[C@H]5CC[C@]6(C)[C@@H](O)CC[C@H]6[C@H]45)CC4=CC(=O)CC[C@@]43C)[C@@H]1CC[C@@H]2O`, the half-inhibitory concentration (IC50) with LNCaP was 30.3 µM; with PC-3, 24.7 µM.

Consider `C[C@]12CC[C@H]3[C@@H]([C@@H](C/C=C/C[C@H]4CC5=CC(=O)CC[C@]5(C)[C@H]5CC[C@]6(C)[C@@H](O)CC[C@H]6[C@H]45)CC4=CC(=O)CC[C@@]43C)[C@@H]1CC[C@@H]2O`, for which the IC50 in the assay with PC-3 came out at 35.7 µM. Consider `CC(=O)O[C@]1(C(C)=O)CC[C@H]2[C@@H]3C=C(Cl)C4=CC(=O)[C@@H]5C[C@@H]5[C@]4(C)[C@H]3CC[C@@]21C` [CYPROTERONE ACETATE], for which the IC50 with LNCaP is 43 µM; with PC-3 it was 32.3 µM.
